Assay results published in US8815499B2, “In situ detoxification of fermentation inhibitors with reducing agents” (priority 2009, dated 2014).
Read-outs that look alike come from different tables or passages of the source.

Legend:
[1] = tested on: yeast Saccharomyces cerevisiae
Experimental: A spruce slurry was prepared an subjected to acidic hydrolysis as described in Example 6. […] Sodium dithionite was added to different samples to concentrations of 2.5, 5, 7.5, 10, 12.5, and 15 mM. The treatments were performed at 21° C. for 5 min with stirring. In addition, treatments with 0.1% (7.9 mM) and 1% (79.3 mM) sodium sulphite were performed. […] Furthermore, a sugar solution (glucose 18 g/L, mannose 14 g/L) was prepared to evaluate if the effect of the sodium dithionite treatment was due to an effect on the hydrolysate or the ethanolic fermentation with yeast. Half of the sugar solution was treated with 10 mM sodium dithionite, whereas the rest was left untreated as a reference. The volumes of treated and untreated samples were equalized with water and the pH was adjusted to pH 5.5 prior to the fermentation. Fermentation was performed with the yeast Saccharomyces cerevisiae as described in the previous Examples.
Spruce hydrolysate samples were prepared as in Example 6.
Two samples were treated with DTT to 2 and 20 mM, respectively, two samples were treated with ascorbic acid to 10 and 100 mM, respectively and two samples were treated with glutathione to 1 and 10 mM, respectively.
The treatment time was 3 h for all samples and fermentation was performed as described in the previous Examples.

[2] = tested on: baker's yeast (Saccharomyces cerevisiae); format: cell-based
Experimental: The pH of the sugarcane bagass and spruce hydrolysates were adjusted to 5.5 with a 5 M solution of sodium hydroxide. The conditioning of each hydrolysate was performed in eight 100-mL glass vessels equipped with magnetic stirrer bars. 26 mL hydrolysate was added to all vessels, and the vessels were placed on a magnetic stirrer plate (IKA-Werke, Staufen, Germany). Sodium dithionite (chemical grade; >87%, Merck, Darmstadt, Germany) was added to hydrolysates in the concentrations 5 and 10 mM. Additions of sodium sulphite to 5 and 10 mM were also performed. The additions were made at room temperature (23° C.) and the samples were kept for 10 min with stirring. The experiments were performed in duplicates.
The efficiency of the additions of the reducing agents was compared with alkali detoxification.
Ethanol measurements were performed by using an enzymatic kit (Ethanol UV-method, Boehringer Mannheim GmbH, Mannheim, Germany). Fermentation experiments were performed to evaluate the effectiveness of the additions and treatments. For comparison, untreated hydrolysates were included in the fermentation experiments as well as reference fermentations of sugar-based medium with an amount of fermentable sugars (i.e. glucose and mannose) corresponding to that in the hydrolysate samples. The fermentations were carried out using baker's yeast (Saccharomyces cerevisiae) (Jästbolaget AB, Rotebro, Sweden). The yeast inoculum was prepared in 750-mL cotton-plugged shake flasks with 300 mL YEPD medium ([…], 2% D-glucose). The flasks were inoculated and incubated with agitation at 30° C. for approximately 12 h. The cells were harvested in the late exponential growth phase by centrifugation (Hermla Z206A, Hermle Labortechnik GmbH, Wehingen, Germany) at 1,500 g for 5 min. The cells were resuspended in an appropriate amount of sterile water to achieve an inoculum consisting of 2.0 g/L (cell dry weight) in all fermentation vessels. The fermentation was carried out in 14 25-mL glass flasks equipped with magnets for stirring and sealed with rubber plugs pierced with cannulas for letting out carbon dioxide. The hydrolysate samples (23.75 mL), or alternatively the sugar solution for reference fermentations, were added to the fermentation flasks along with 0.5 mL of a nutrient solution (150 g/L yeast extract, 75 g/L (NH4)2HPO4, 3.75 g/L MgSO4.7 H2O, 238.2 g/L NaH2PO4.H2O), and 0.75 mL of yeast inoculum. The flasks were incubated at 30° C. in a water bath with magnetic stirring (IKA-Werke). Samples for measurement of sugars and ethanol were withdrawn during the fermentation. The glucose levels during the fermentation were estimated by using a glucometer (Glucometer Elite XL, Bayer AG, Leverkusen, Germany).

[3] = tested on: yeast Saccharomyces cerevisiae; experiment: Simultaneous saccharification and fermentation (SSF) of spruce slurry; format: cell-based; settings: for Ethanol concentration: after 70 hours
Experimental: Addition of sodium dithionite and sodium sulphite was tested in an SSF process. Spruce was pretreated as described in Example 1 above. The spruce slurry was adjusted to pH 5.4 with a 5 M solution of sodium hydroxide. Ten 250-mL shake flasks equipped with magnetic stirrer bars were filled with 100 g of spruce slurry. Sodium dithionite or sodium sulphite was added to the slurries to final concentrations of 7.5 and 10 mM. The additions were performed at room temperature (23° C.) for 10 min with stirring. Duplicate experiments were made. Cellulase and cellobiase preparations were prepared and added to the slurry using the enzyme activity loadings as described in Example 1 above. Further, the yeast inoculum was prepared according to Example 1 above. Inoculums were added to give a start concentration of 2.0 g/L (cell dry weight) in every flask. No source of extra nutrients was added. For comparison, two flasks with spruce slurry to which no reducing agents had been added were included in the experiment. The flasks were incubated at 35° C. for 69 h in a water bath with magnetic stirring. The flasks were sealed with Parafilm (Pechiney Plastic Packaging Company, Chicago, Ill., USA) to prevent evaporation of ethanol. Samples were withdrawn for analysis of ethanol according to Example 1 above.
A spruce slurry was prepared according to Examples 1 and 2 above. Different flasks were filled with 100 g each of the spruce slurry and were subjected to a SSF process according to Example 2 above, but with different amounts of dithionite and sulphite added. The produced ethanol was monitored during the fermentation. […]

[4] = tested on: yeast Saccharomyces cerevisiae; experiment: Simultaneous saccharification and fermentation (SSF) of sugarcane bagass slurry; format: cell-based; settings: 7.5 and 10 mM, FIG. 9
Experimental: SSF experiments were also performed with sugarcane bagass slurries. […] Reducing agents, dithionite and sulphite, respectively, were added 10 min prior to inoculum in concentrations of studied 7.5 and 10 mM. The ethanol concentration was measured after 13 and 45 hours according to the protocol described in Example 1.

[5] = tested on: yeast Saccharomyces cerevisiae; experiment: Fermentation of sugar solution with model inhibitor coniferyl aldehyde; settings: sugar solution with coniferyl aldehyde (2.5 mM), untreated, FIG. 12
Experimental: (§1) A sugar solution (glucose 18 g/L, mannose 14 g/L) with a coniferyl aldehyde concentration of 2.5 mM was prepared. Half of the solution was treated with 10 mM of sodium dithionite and the rest of the solution was left untreated as a reference. Fermentation was performed with the yeast Saccharomyces cerevisiae as described in the previous Examples.

[6] = as above; settings: Saccharomyces cerevisiae
Experimental: as §1

[7] = bagass hydrolysate, 6 h fermentation, 10 mM
[8] = spruce hydrolysate, 14 h fermentation, 10 mM

In the case of `O[C@H](CS)[C@H](O)CS` (racemic) [DTT, Dithiothreitol], the Fermentability ([1]; acid spruce hydrolysate, 20 mM, treatment time 3 h) is reported as “improved fermentability” and the “Glucose consumption rate compared with the untreated sample” value ([1]; acid spruce hydrolysate, 20 mM, treatment time 3 h, FIG. 13) is reported as “higher glucose consumption rate”.
With `N` [NH4OH, ammonium hydroxide, reference compound] the Yield ([2]; bagass hydrolysate, 6 h fermentation, NH4OH detoxification) was 0.34 g EtOH/g consumed glucose & mannose, the Yield ([2]; spruce hydrolysate, 14 h fermentation, NH4OH detoxification) was 0.43 g EtOH/g consumed glucose & mannose and the Ethanol concentration ([1]; NH4OH treatment, 2.75 h) was 4.56 g/L. The Productivity ([1]; NH4OH treatment, 2.75 h) was 1.66 g EtOH × L^−1 × h^−1, the Yield ([1]; NH4OH treatment, 2.75 h) was 0.30 g EtOH/g consumed glucose and mannose and the Ethanol concentration ([1]; NH4OH treatment, 4.25 h) was 10.75 g/L. The Productivity ([1]; NH4OH treatment, 4.25 h) was 2.53 g EtOH × L^−1 × h^−1, the Yield ([1]; NH4OH treatment, 4.25 h) was 0.42 g EtOH/g consumed glucose and mannose and the Ethanol concentration ([1]; NH4OH treatment, 6.25 h) was 9.81 g/L. For the same compound, the Productivity ([1]; NH4OH treatment, 6.25 h) was 1.57 g EtOH × L^−1 × h^−1, the Yield ([1]; NH4OH treatment, 6.25 h) was 0.32 g EtOH/g consumed glucose and mannose and the Ethanol concentration ([1]; NH4OH treatment, 9.25 h) was 14.08 g/L. For the same compound, the Productivity ([1]; NH4OH treatment, 9.25 h) was 1.52 g EtOH × L^−1 × h^−1, the Yield ([1]; NH4OH treatment, 9.25 h) was 0.47 g EtOH/g consumed glucose and mannose and the Viable cells ([1]; acid spruce hydrolysate, NH4OH treatment, fermentation time 2.25 h) was 95.3 ± 3.0%.
With `O=S([O-])[O-].[Na+].[Na+]` [Sulphite, sodium sulphite] the Ethanol concentration ([3]; 2.5 mM) was “did not result in as high final ethanol concentrations”, the Ethanol concentration ([3]; 5 mM) was “did not result in as high final ethanol concentrations” and the Ethanol concentration ([3]; 7.5 mM) was 35 to 40 g/L. The Ethanol concentration ([3]; 10 mM) was 35 to 40 g/L, the Ethanol concentration ([3]; 15 mM) was “about 40 g/L” and the Ethanol concentration ([3]; 20 mM) was “about 40 g/L”. For the same compound, the Ethanol concentration ([3]; 30 mM) was “about 40 g/L”, the “Ethanol production compared to the untreated hydrolysate” value ([3]; 7.5 and 10 mM, FIG. 5) was “higher ethanol production” and the “Time after which ethanol formation leveled off” value ([3]; 7.5 and 10 mM, FIG. 5) was 20 h. For the same compound, the Balanced ethanol yield [2, 7] was 0.21 g EtOH/Σglucose & mannose prior to detoxification, the Productivity [2, 7] was 2.9 g EtOH × L^−1 × h^−1 and the Yield [2, 7] was 0.32 g EtOH/g consumed glucose & mannose. For the same compound, the Ethanol production ([2]; bagass hydrolysate, 6 h fermentation, FIG. 4) was “high ethanol production”, the “Glucose consumption rates and amounts of ethanol produced” value ([2]; spruce hydrolysate, 10 mM, FIGS. 1 and 2) was “substantial improvement” and the Balanced ethanol yield [2, 8] was 0.16 g EtOH/Σglucose & mannose prior to detoxification. The Productivity [2, 8] was 1.2 g EtOH × L^−1 × h^−1, the Yield [2, 8] was 0.29 g EtOH/g consumed glucose & mannose and the “Fermentability (ethanol production after 13 and 45 hours)” value [4] was “improved fermentability”. The “Fermentability (glucose consumption)” value ([1]; acid spruce hydrolysate, 1% (79.3 mM), FIG. 11) was “better fermentability compared to the untreated hydrolysate”.
In the case of `O=C1O[C@H]([C@@H](O)CO)C(O)=C1O` [ascorbic acid], the Fermentability ([1]; acid spruce hydrolysate, 100 mM, treatment time 3 h) is reported as “improved fermentability”.
In the case of `COc1cc(/C=C/C=O)ccc1O` [coniferyl aldehyde, reference compound], the Glucose consumption [5] is reported as “approximately no reduced glucose concentration”, the viability at 2.25 h, 2.5 mM [6] is reported as 1.7% and the viability at 7 h, 2.5 mM [6] is reported as 0%.
In the case of `N[C@@H](CCC(=O)N[C@@H](CS)C(=O)NCC(=O)O)C(=O)O` [glutathione, reduced glutathione], the Fermentability ([1]; acid spruce hydrolysate, 10 mM, treatment time 3 h) is reported as “improved fermentability”.
